# Reference: PubChem BioAssay AID1963838 (Molecular Pharmacology Branch, DTP, NCI, 2024)
# Test system: 855422-203-R-J1-PDC complex spheroid viability
# Assay: Anticancer human tumor 855422-203-R-J1-PDC patient-derived bladder carcinoma cell line growth inhibition [POLQ]
# Settings: for IC50: curve of first compound; for viability, T/C: stronger effect = lower value
# In short: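 PDC + HUVEC + MSC complex spheroids; POLQ inhibitors ± partner drugs; top conc. at/near clinical Cmax, else 10 microM (SN-38 1 microM), half-log dilutions; 37 degrees C, 5% CO2.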
# [1] = second compound 0.0316 µM, first compound 0.0316 µM
# [2] = second compound 0.0316 µM, first compound 0.1 µM
# [3] = second compound 0.0316 µM, first compound 0.316 µM
# [4] = second compound 0.0316 µM, first compound 1 µM
# [5] = second compound 0.0316 µM, first compound 3.16 µM
# [6] = second compound 0.0316 µM, first compound 10 µM
# [7] = second compound 0.1 µM, first compound 0.0316 µM
# [8] = second compound 0.1 µM, first compound 0.1 µM
# [9] = second compound 0.1 µM, first compound 0.316 µM
# [10] = second compound 0.1 µM, first compound 1 µM
# [11] = second compound 0.1 µM, first compound 3.16 µM
# [12] = second compound 0.1 µM, first compound 10 µM
# [13] = second compound 0.316 µM, first compound 0.0316 µM
# [14] = second compound 0.316 µM, first compound 0.1 µM
# [15] = second compound 0.316 µM, first compound 0.316 µM
# [16] = second compound 0.316 µM, first compound 1 µM
# [17] = second compound 0.316 µM, first compound 3.16 µM
# [18] = second compound 0.316 µM, first compound 10 µM
# [19] = second compound 1 µM, first compound 0.0316 µM
# [20] = second compound 1 µM, first compound 0.1 µM
# [21] = second compound 1 µM, first compound 0.316 µM
# [22] = second compound 1 µM, first compound 1 µM
# [23] = second compound 1 µM, first compound 3.16 µM
# [24] = second compound 1 µM, first compound 10 µM
# [25] = second compound 3.16 µM, first compound 0.0316 µM
# [26] = second compound 3.16 µM, first compound 0.1 µM
# [27] = second compound 3.16 µM, first compound 0.316 µM
# [28] = second compound 3.16 µM, first compound 1 µM
# [29] = second compound 3.16 µM, first compound 3.16 µM
# [30] = second compound 3.16 µM, first compound 10 µM
# [31] = second compound 10 µM, first compound 0.0316 µM
# [32] = second compound 10 µM, first compound 0.1 µM
# [33] = second compound 10 µM, first compound 0.316 µM
# [34] = second compound 10 µM, first compound 1 µM
# [35] = second compound 10 µM, first compound 3.16 µM
# [36] = second compound 10 µM, first compound 10 µM
# 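Further: spheroids exposed to compounds for seven days before readout.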
structure (smiles),measurement,setting,value
C=CC(=O)N1CCN(c2nc(=O)n(-c3c(C)ccnc3C(C)C)c3nc(-c4c(O)cccc4F)c(F)cc23)C(C)C1 (stereo not given) + Nc1ccc(C#CCN(C(=O)Cc2ncc(C(F)(F)F)cc2C(F)(F)F)c2ccc(F)cc2)nn1,IC50,second compound 0.0316 µM,> 10 µM
same,IC50,second compound 0.1 µM,> 10 µM
same,IC50,second compound 0.316 µM,> 10 µM
same,IC50,second compound 1 µM,> 10 µM
same,IC50,second compound 3.16 µM,> 10 µM
same,IC50,second compound 10 µM,> 10 µM
same,"viability, T/C",[1],101%
same,"viability, T/C",[2],116%
same,"viability, T/C",[3],120%
same,"viability, T/C",[4],105%
same,"viability, T/C",[5],144%
same,"viability, T/C",[6],214%
same,"viability, T/C",[7],99%
same,"viability, T/C",[8],137%
same,"viability, T/C",[9],107%
same,"viability, T/C",[10],121%
same,"viability, T/C",[11],159%
same,"viability, T/C",[12],235%
same,"viability, T/C",[13],126%
same,"viability, T/C",[14],129%
same,"viability, T/C",[15],121%
same,"viability, T/C",[16],122%
same,"viability, T/C",[17],146%
same,"viability, T/C",[18],176%
same,"viability, T/C",[19],99.4%
same,"viability, T/C",[20],113%
same,"viability, T/C",[21],92.2%
same,"viability, T/C",[22],158%
same,"viability, T/C",[23],120%
same,"viability, T/C",[24],173%
same,"viability, T/C",[25],103%
same,"viability, T/C",[26],121%
same,"viability, T/C",[27],97.2%
same,"viability, T/C",[28],129%
same,"viability, T/C",[29],129%
same,"viability, T/C",[30],175%
same,"viability, T/C",[31],109%
same,"viability, T/C",[32],108%
same,"viability, T/C",[33],99.1%
same,"viability, T/C",[34],117%
same,"viability, T/C",[35],113%
same,"viability, T/C",[36],124%
CC(C)n1c(=O)n(C)c2cnc3cc(F)c(-c4ccc(OCCCN5CCCCC5)nc4)cc3c21 + Nc1ccc(C#CCN(C(=O)Cc2ncc(C(F)(F)F)cc2C(F)(F)F)c2ccc(F)cc2)nn1,IC50,second compound 0.0316 µM,> 10 µM
same,IC50,second compound 0.1 µM,> 10 µM
same,IC50,second compound 0.316 µM,> 10 µM
same,IC50,second compound 1 µM,> 10 µM
same,IC50,second compound 3.16 µM,> 10 µM
same,IC50,second compound 10 µM,> 10 µM
same,"viability, T/C",[1],100%
same,"viability, T/C",[2],123%
same,"viability, T/C",[3],110%
same,"viability, T/C",[4],94.2%
same,"viability, T/C",[5],99.9%
same,"viability, T/C",[6],107%
same,"viability, T/C",[7],99.4%
same,"viability, T/C",[8],140%
same,"viability, T/C",[9],97.2%
same,"viability, T/C",[10],94.4%
same,"viability, T/C",[11],100%
same,"viability, T/C",[12],93.5%
same,"viability, T/C",[13],96.5%
same,"viability, T/C",[14],128%
same,"viability, T/C",[15],96.3%
same,"viability, T/C",[16],99.3%
same,"viability, T/C",[17],97%
same,"viability, T/C",[18],96.1%
same,"viability, T/C",[19],91.8%
same,"viability, T/C",[20],120%
same,"viability, T/C",[21],95.1%
same,"viability, T/C",[22],99.2%
same,"viability, T/C",[23],101%
same,"viability, T/C",[24],91.3%
same,"viability, T/C",[25],97.9%
same,"viability, T/C",[26],148%
same,"viability, T/C",[27],98%
same,"viability, T/C",[28],106%
same,"viability, T/C",[29],103%
same,"viability, T/C",[30],92.1%
same,"viability, T/C",[31],104%
same,"viability, T/C",[32],101%
same,"viability, T/C",[33],91.3%
same,"viability, T/C",[34],100%
same,"viability, T/C",[35],101%
same,"viability, T/C",[36],82.8%
CCc1cc2c(N3CCc4c(cc(Cn5ccnc5)cc4-c4cn(C)nc4C(F)(F)F)C3=O)cc(C)nc2c(OC)n1 + Nc1ccc(C#CCN(C(=O)Cc2ncc(C(F)(F)F)cc2C(F)(F)F)c2ccc(F)cc2)nn1,IC50,second compound 0.0316 µM,6 µM
same,IC50,second compound 0.1 µM,5.3 µM
same,IC50,second compound 0.316 µM,5.49 µM
same,IC50,second compound 1 µM,6.4 µM
same,IC50,second compound 3.16 µM,5.25 µM
same,IC50,second compound 10 µM,3.47 µM
same,"viability, T/C",[1],133%
same,"viability, T/C",[2],120%
same,"viability, T/C",[3],119%
same,"viability, T/C",[4],93.5%
same,"viability, T/C",[5],66.3%
same,"viability, T/C",[6],37.1%
same,"viability, T/C",[7],131%
same,"viability, T/C",[8],138%
same,"viability, T/C",[9],127%
same,"viability, T/C",[10],96%
same,"viability, T/C",[11],63.5%
same,"viability, T/C",[12],35.5%
same,"viability, T/C",[13],114%
same,"viability, T/C",[14],138%
same,"viability, T/C",[15],108%
same,"viability, T/C",[16],95.8%
same,"viability, T/C",[17],61.5%
same,"viability, T/C",[18],37.4%
same,"viability, T/C",[19],111%
same,"viability, T/C",[20],121%
same,"viability, T/C",[21],111%
same,"viability, T/C",[22],92.2%
same,"viability, T/C",[23],71.5%
same,"viability, T/C",[24],37.1%
same,"viability, T/C",[25],110%
same,"viability, T/C",[26],118%
same,"viability, T/C",[27],133%
same,"viability, T/C",[28],92.5%
same,"viability, T/C",[29],61.2%
same,"viability, T/C",[30],38.6%
same,"viability, T/C",[31],116%
same,"viability, T/C",[32],115%
same,"viability, T/C",[33],98%
same,"viability, T/C",[34],77.4%
same,"viability, T/C",[35],52.2%
same,"viability, T/C",[36],31.7%
CCc1cc2c(N3CCc4c(cc(Cn5ccnc5)cc4-c4cn(C)nc4C(F)(F)F)C3=O)ccnc2c(OC)n1 + Nc1ccc(C#CCN(C(=O)Cc2ncc(C(F)(F)F)cc2C(F)(F)F)c2ccc(F)cc2)nn1,IC50,second compound 0.0316 µM,9.24 µM
same,IC50,second compound 0.1 µM,9.09 µM
same,IC50,second compound 0.316 µM,6.82 µM
same,IC50,second compound 1 µM,8.55 µM
same,IC50,second compound 3.16 µM,7.63 µM
same,IC50,second compound 10 µM,6.77 µM
same,"viability, T/C",[1],107%
same,"viability, T/C",[2],142%
same,"viability, T/C",[3],133%
same,"viability, T/C",[4],93.7%
same,"viability, T/C",[5],87%
same,"viability, T/C",[6],46.4%
same,"viability, T/C",[7],125%
same,"viability, T/C",[8],142%
same,"viability, T/C",[9],130%
same,"viability, T/C",[10],93.1%
same,"viability, T/C",[11],76.3%
same,"viability, T/C",[12],45.8%
same,"viability, T/C",[13],136%
same,"viability, T/C",[14],147%
same,"viability, T/C",[15],133%
same,"viability, T/C",[16],88.1%
same,"viability, T/C",[17],72.6%
same,"viability, T/C",[18],39.4%
same,"viability, T/C",[19],98.1%
same,"viability, T/C",[20],121%
same,"viability, T/C",[21],109%
same,"viability, T/C",[22],115%
same,"viability, T/C",[23],72.2%
same,"viability, T/C",[24],46.5%
same,"viability, T/C",[25],148%
same,"viability, T/C",[26],131%
same,"viability, T/C",[27],125%
same,"viability, T/C",[28],124%
same,"viability, T/C",[29],72.6%
same,"viability, T/C",[30],43.1%
same,"viability, T/C",[31],98.9%
same,"viability, T/C",[32],122%
same,"viability, T/C",[33],112%
same,"viability, T/C",[34],111%
same,"viability, T/C",[35],72.6%
same,"viability, T/C",[36],38.5%
COc1cc2cc(C(=O)CCC(=O)O)sc2cc1OC + Nc1ccc(C#CCN(C(=O)Cc2ncc(C(F)(F)F)cc2C(F)(F)F)c2ccc(F)cc2)nn1,IC50,second compound 0.0316 µM,> 10 µM
same,IC50,second compound 0.1 µM,> 10 µM
same,IC50,second compound 0.316 µM,> 10 µM
same,IC50,second compound 1 µM,> 10 µM
same,IC50,second compound 3.16 µM,> 10 µM
same,IC50,second compound 10 µM,> 10 µM
same,"viability, T/C",[1],97.8%
same,"viability, T/C",[2],121%
same,"viability, T/C",[3],97.6%
same,"viability, T/C",[4],86.3%
same,"viability, T/C",[5],109%
same,"viability, T/C",[6],94.5%
same,"viability, T/C",[7],99.8%
same,"viability, T/C",[8],101%
same,"viability, T/C",[9],91%
same,"viability, T/C",[10],82%
same,"viability, T/C",[11],138%
same,"viability, T/C",[12],109%
same,"viability, T/C",[13],104%
same,"viability, T/C",[14],105%
same,"viability, T/C",[15],90%
same,"viability, T/C",[16],94.1%
same,"viability, T/C",[17],107%
same,"viability, T/C",[18],92%
same,"viability, T/C",[19],86.8%
same,"viability, T/C",[20],104%
same,"viability, T/C",[21],102%
same,"viability, T/C",[22],98.7%
same,"viability, T/C",[23],97.3%
same,"viability, T/C",[24],90.4%
same,"viability, T/C",[25],92.4%
same,"viability, T/C",[26],111%
same,"viability, T/C",[27],94.9%
same,"viability, T/C",[28],97.5%
same,"viability, T/C",[29],97.1%
same,"viability, T/C",[30],88.6%
same,"viability, T/C",[31],92.8%
same,"viability, T/C",[32],92%
same,"viability, T/C",[33],87.1%
same,"viability, T/C",[34],102%
same,"viability, T/C",[35],96%
same,"viability, T/C",[36],88.5%
